# Laboratory results taken from patent US20070142395A1, “Treatment of sexual dysfunction with 1-[3-[4-(3-chlorophenyl)-1-piperazinyl]propyl]-5-methoxy-3,4-dihydro-2(1H)-quinolone or salt thereof” (Vela Pharmaceuticals, Inc., priority 2005, published 2007).
# Columns and labels:
# [1] = system: patients with MDD; experiment: Efficacy on MDD, main indication of the clinical trial; format: in vivo, Humans; settings: main indication in the clinical trial; 5 mg BID, 8 weeks
# Procedure: (§1) A double-blind, randomized, placebo-controlled, parallel-group study was performed to evaluate the efficacy, safety and tolerability of OPC-14523 in patients with MDD. The patients selected for participation in the trial had to meet DSM-IV-TR criteria for MDD (296.2x or 296.3x; diagnosis via MINI) and had had symptoms of depression for at least 2 months before the start of the double-blind treatment. Among other drugs prohibited during the study, patients were prohibited from taking drugs used to enhance sexual function, including, but not limited to, sildenafil, tadalafil and vardenafil, or taking psychopharmacologic drugs.
# [2] = system: patients with MDD; experiment: CSFQ shift analysis (sexual dysfunction / no sexual dysfunction by threshold), same clinical study; format: in vivo, Humans; settings: shift baseline to Day 56, LOCF, 5 mg BID
# Procedure: as §1
# Each patient was expected to participate for up to 10 weeks. The 10 weeks included: i) a 4- to 10-day screening period, during which potential participants were administered placebo in a single-blind manner; ii) an 8-week double-blind treatment period; and iii) a 4- to 10- day post-treatment visit period. Baseline evaluations, including assessment of sexual function, were conducted on Day −1. The next day, Day 1, the double-blind medication was begun. All treatment was on an outpatient basis.
# The dosages studied were 5 mg BID OPC-14523 (10 mg total daily dose of immediate release tablet of Example 1) and placebo. The drugs were taken after meals in the morning and in the evening, about 12 hours apart.
# Data on sexual function were collected using the Changes in Sexual Function Questionnaire (CSFQ). The CSFQ is a 14-item self-report measure of sexual functioning vis-â-vis experiences of pleasure, desire, arousal, and orgasm, with a 5-point response option for each item. The 14-item validated CSFQ was developed from a questionnaire comprising 35 and 36 items for female and male respondents, respectively (Clayton et al., Psychopharmacol Bull. 33(4):731-45 (1997) and Clayton et al., Psychopharmacol Bull. 33(4):747-53 (1997), each incorporated herein by reference in its entirety). The CSFQ has also been independently validated (Bobes et al., J Sex Marital Ther. 26(2): 119-31(2000)). The 14-item CSFQ includes items 8, 11, 14, 19-24 from the interview version of the CSFQ (“CSFQ-I”); Clayton et al., Psychopharmacol Bull. 33(4):731-45 (1997)). The CSFQ differs for men and women, reflecting some variation in wording of items. Males were given the male clinical version, CSFQ-M-C, and women were given the female clinical version, CSFQ-F-C. CSFQ-F-C includes items 25, 27, 28, 30 and 31 from the questions for women on the CSFG-I. CSFQ-M-C includes items 28-32 from the questions for men on the CSFQ-I, as well as item 25 from the questions for women.
# The 14-item CSFQ has subscales for sexual pleasure (1 item), desire/frequency (2 items), desire/interest (3 items), arousal (3 items), and orgasm (3 items). In addition, a 14-item total score may be calculated. Higher scores are indicative of more favorable sexual functioning. Threshold scores for total and sub-scales have been defined. A score below the threshold score indicates dysfunction.
# The construction of shift tables is a routine analysis that is often carried out in the analysis of clinical trial data. For the data herein, the analysis was constructed by categorizing the subjects' scores at baseline and then separately at Day 56 according to having sexual dysfunction (SD) or no sexual dysfunction (NSD). These categories were defined by the threshold values specified in the CSFQ (see Table 4). The cross-classification of the baseline categories with the Day 56 categories results in a 2×2 table with the cells NSD/NSD, NSD/SD, SD/NSD, and SD/SD. Two categories represent the number and percent of subjects who stayed in the same category from baseline to Day 56 (NSD/NSD and SD/SD cells). The other two categories represent the number and percentage of subjects who shifted either for better (SD/NSD cell) or worse (NSD/SD cell). In the tables below, “remained low” refers to the SD/SD category. […]
smiles,measurement,setting,value
"COc1cccc2c1CCC(=O)N2CCCN1CCN(c2cccc(Cl)c2)CC1 [OPC-14523, 1-[3-[4-(3-chlorophenyl)-1-piperazinyl]propyl]-5-methoxy-3,4-dihydro-2(1H)-quinolone]",effect on MDD,[1],did not demonstrate a statistically significant effect
same,"CSFQ Arousal/Excitement: Improved (Low→Normal), %",[2]; all patients (men and women),6%
same,"CSFQ Arousal/Excitement: Remained Low, %",[2]; all patients (men and women),84%
same,"CSFQ Arousal/Excitement: Remained Normal, %",[2]; all patients (men and women),7%
same,"CSFQ Arousal/Excitement: Worsened (Normal→Low), %",[2]; all patients (men and women),3 (3%)
same,"CSFQ Desire/Frequency: Improved (Low→Normal), %",[2]; all patients (men and women),13%
same,"CSFQ Desire/Frequency: Remained Low, %",[2]; all patients (men and women),75%
same,"CSFQ Desire/Frequency: Remained Normal, %",[2]; all patients (men and women),9%
same,"CSFQ Desire/Frequency: Worsened (Normal→Low), %",[2]; all patients (men and women),3%
same,"CSFQ Desire/Interest: Improved (Low→Normal), %",[2]; all patients (men and women),7%
same,"CSFQ Desire/Interest: Remained Low, %",[2]; all patients (men and women),78%
same,"CSFQ Desire/Interest: Remained Normal, %",[2]; all patients (men and women),12%
same,"CSFQ Desire/Interest: Worsened (Normal→Low), %",[2]; all patients (men and women),3 (3%)
same,"CSFQ Orgasm/Completion: Improved (Low→Normal), %",[2]; all patients (men and women),12%
same,"CSFQ Orgasm/Completion: Remained Low, %",[2]; all patients (men and women),64%
same,"CSFQ Orgasm/Completion: Remained Normal, %",[2]; all patients (men and women),17%
same,"CSFQ Orgasm/Completion: Worsened (Normal→Low), %",[2]; all patients (men and women),7%
same,"CSFQ Pleasure: Improved (Low→Normal), %",[2]; all patients (men and women),5%
same,"CSFQ Pleasure: Remained Low, %",[2]; all patients (men and women),91%
same,"CSFQ Pleasure: Remained Normal, %",[2]; all patients (men and women),3%
same,"CSFQ Pleasure: Worsened (Normal→Low), %",[2]; all patients (men and women),0 (0%)
same,"CSFQ Total Score: Improved (Low→Normal), %",[2]; all patients (men and women),16%
same,"CSFQ Total Score: Remained Low, %",[2]; all patients (men and women),42%
same,"CSFQ Total Score: Remained Normal, %",[2]; all patients (men and women),39%
same,"CSFQ Total Score: Worsened (Normal→Low), %",[2]; all patients (men and women),3 (3%)
same,"CSFQ Arousal/Excitement: Improved (Low→Normal), %",[2]; men only,2%
same,"CSFQ Arousal/Excitement: Remained Low, %",[2]; men only,79%
same,"CSFQ Arousal/Excitement: Remained Normal, %",[2]; men only,15%
same,"CSFQ Arousal/Excitement: Worsened (Normal→Low), %",[2]; men only,4%
same,"CSFQ Desire/Frequency: Improved (Low→Normal), %",[2]; men only,13%
same,"CSFQ Desire/Frequency: Remained Low, %",[2]; men only,77%
same,"CSFQ Desire/Frequency: Remained Normal, %",[2]; men only,9%
same,"CSFQ Desire/Frequency: Worsened (Normal→Low), %",[2]; men only,2%
same,"CSFQ Desire/Interest: Improved (Low→Normal), %",[2]; men only,2%
same,"CSFQ Desire/Interest: Remained Low, %",[2]; men only,81%
same,"CSFQ Desire/Interest: Remained Normal, %",[2]; men only,17%
same,"CSFQ Desire/Interest: Worsened (Normal→Low), %",[2]; men only,0 (0%)
same,"CSFQ Orgasm/Completion: Improved (Low→Normal), %",[2]; men only,9%
same,"CSFQ Orgasm/Completion: Remained Low, %",[2]; men only,68%
same,"CSFQ Orgasm/Completion: Remained Normal, %",[2]; men only,15%
same,"CSFQ Orgasm/Completion: Worsened (Normal→Low), %",[2]; men only,9%
same,"CSFQ Pleasure: Improved (Low→Normal), %",[2]; men only,2%
same,"CSFQ Pleasure: Remained Low, %",[2]; men only,91%
same,"CSFQ Pleasure: Remained Normal, %",[2]; men only,6%
same,"CSFQ Pleasure: Worsened (Normal→Low), %",[2]; men only,0 (0%)
same,"CSFQ Total Score: Improved (Low→Normal), %",[2]; men only,15%
same,"CSFQ Total Score: Remained Low, %",[2]; men only,40%
same,"CSFQ Total Score: Remained Normal, %",[2]; men only,43%
same,"CSFQ Total Score: Worsened (Normal→Low), %",[2]; men only,2%
same,"CSFQ Arousal/Excitement: Improved (Low→Normal), %",[2]; women only,9%
same,"CSFQ Arousal/Excitement: Remained Low, %",[2]; women only,88%
same,"CSFQ Arousal/Excitement: Remained Normal, %",[2]; women only,1 (1%)
same,"CSFQ Arousal/Excitement: Worsened (Normal→Low), %",[2]; women only,1 (1%)
same,"CSFQ Desire/Frequency: Improved (Low→Normal), %",[2]; women only,13%
same,"CSFQ Desire/Frequency: Remained Low, %",[2]; women only,74%
same,"CSFQ Desire/Frequency: Remained Normal, %",[2]; women only,9%
same,"CSFQ Desire/Frequency: Worsened (Normal→Low), %",[2]; women only,4%
same,"CSFQ Desire/Interest: Improved (Low→Normal), %",[2]; women only,10%
same,"CSFQ Desire/Interest: Remained Low, %",[2]; women only,76%
same,"CSFQ Desire/Interest: Remained Normal, %",[2]; women only,9%
same,"CSFQ Desire/Interest: Worsened (Normal→Low), %",[2]; women only,4%
same,"CSFQ Orgasm/Completion: Improved (Low→Normal), %",[2]; women only,15%
same,"CSFQ Orgasm/Completion: Remained Low, %",[2]; women only,61%
same,"CSFQ Orgasm/Completion: Remained Normal, %",[2]; women only,18%
same,"CSFQ Orgasm/Completion: Worsened (Normal→Low), %",[2]; women only,6%
same,"CSFQ Pleasure: Improved (Low→Normal), %",[2]; women only,7%
same,"CSFQ Pleasure: Remained Low, %",[2]; women only,91%
same,"CSFQ Pleasure: Remained Normal, %",[2]; women only,1 (1%)
same,"CSFQ Pleasure: Worsened (Normal→Low), %",[2]; women only,0 (0%)
same,"CSFQ Total Score: Improved (Low→Normal), %",[2]; women only,16%
same,"CSFQ Total Score: Remained Low, %",[2]; women only,43%
same,"CSFQ Total Score: Remained Normal, %",[2]; women only,37%
same,"CSFQ Total Score: Worsened (Normal→Low), %",[2]; women only,3%
